Data published in PubChem BioAssay AID330 (DTP/NCI, 2004).
“And” between values parts separate entries of the source, which are not always exact repeats. Identical values can stand only once. Toxic doses and inconclusive results are not listed.

Test system: P388 leukemia ip, CD2F1 mice, survival T/C
Assay: NCI In Vivo Anticancer Drug Screen. Data for tumor model P388 Leukemia (intraperitoneal) in CD2F1 (CDF1) mice
Settings: endpoint: median survival time, higher = longer survival
Outline: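 Mice carrying the transplanted tumor received test compound or vehicle. Survival was recorded in each group, and the value is the treated-group measurement divided by that of the vehicle-treated control group.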

[1] = dose: 25.0 mg/kg/injection, schedule: Q01DX009 (ip), vehicle: saline
[2] = dose: 50.0 mg/kg/injection, schedule: Q01DX005 (ip), vehicle: saline
[3] = dose: 60.0 mg/kg/injection, schedule: Q01DX005 (ip), vehicle: saline with Tween-80
[4] = dose: 120.0 mg/kg/injection, schedule: Q01DX005 (ip), vehicle: saline with Tween-80
[5] = dose: 240.0 mg/kg/injection, schedule: Q01DX005 (ip), vehicle: saline with Tween-80
[6] = dose: 100.0 mg/kg/injection, schedule: Q01DX001 (ip), vehicle: Klucel (hydroxypropylcellulose) (HPC)
[7] = dose: 200.0 mg/kg/injection, schedule: Q01DX001 (ip), vehicle: Klucel (hydroxypropylcellulose) (HPC)
[8] = dose: 400.0 mg/kg/injection, schedule: Q01DX001 (ip), vehicle: Klucel (hydroxypropylcellulose) (HPC)

COc1ccc2c(c1OC)CCN1C3=C(CC(OC(=O)c4ccccc4)CC3)C(=O)CC21 (centres undefined)
T/C (dose: 100.0 mg/kg/injection, schedule: Q01DX001 (ip), vehicle: saline sonified): 100 % of control | T/C (dose: 200.0 mg/kg/injection, schedule: Q01DX001 (ip), vehicle: saline sonified): 110 % of control | T/C (dose: 400.0 mg/kg/injection, schedule: Q01DX001 (ip), vehicle: saline sonified): 110 % of control

Cc1nn(-c2ccc(Cl)cc2)c2nc(N)nc(N)c12
T/C (dose: 6.25 mg/kg/injection, schedule: Q04DX002 (ip), vehicle: Klucel (hydroxypropylcellulose) (HPC)): 92 % of control | T/C (dose: 12.5 mg/kg/injection, schedule: Q04DX002 (ip), vehicle: Klucel (hydroxypropylcellulose) (HPC)): 89 % of control and 93 % of control | T/C (dose: 25.0 mg/kg/injection, schedule: Q04DX002 (ip), vehicle: Klucel (hydroxypropylcellulose) (HPC)): 92 % of control | T/C (dose: 50.0 mg/kg/injection, schedule: Q04DX002 (ip), vehicle: Klucel (hydroxypropylcellulose) (HPC)): 89 % of control | T/C (dose: 100.0 mg/kg/injection, schedule: Q04DX002 (ip), vehicle: Klucel (hydroxypropylcellulose) (HPC)): 105 % of control | T/C (dose: 200.0 mg/kg/injection, schedule: Q04DX002 (ip), vehicle: Klucel (hydroxypropylcellulose) (HPC)): 115 % of control | T/C (dose: 400.0 mg/kg/injection, schedule: Q04DX002 (ip), vehicle: Klucel (hydroxypropylcellulose) (HPC)): 113 % of control

NC(=S)c1ncn(C2OC(CO)C(O)C2O)c1N (centres undefined)
T/C (dose: 12.5 mg/kg/injection, schedule: Q01DX009 (ip), vehicle: saline): 104 % of control | T/C [1]: 101 % of control | T/C (dose: 50.0 mg/kg/injection, schedule: Q01DX009 (ip), vehicle: saline): 101 % of control | T/C (dose: 100.0 mg/kg/injection, schedule: Q01DX009 (ip), vehicle: saline): 112 % of control | T/C (dose: 200.0 mg/kg/injection, schedule: Q01DX009 (ip), vehicle: saline): 112 % of control | T/C (dose: 400.0 mg/kg/injection, schedule: Q01DX009 (ip), vehicle: saline): 101 % of control

CCC(=O)Nc1nnc(SCCCCCCCCCCSc2nnc(NC(=O)CC)s2)s1
T/C (dose: 50.0 mg/kg/injection, schedule: Q01DX005 (ip), vehicle: Klucel (hydroxypropylcellulose) (HPC)): 89 % of control | T/C (dose: 100.0 mg/kg/injection, schedule: Q01DX005 (ip), vehicle: Klucel (hydroxypropylcellulose) (HPC)): 91 % of control | T/C (dose: 200.0 mg/kg/injection, schedule: Q01DX005 (ip), vehicle: Klucel (hydroxypropylcellulose) (HPC)): 87 % of control

CN(C)C(=O)COC(C(=O)N(C)C)C(OCC(=O)N(C)C)C(=O)N(C)C (centres undefined)
T/C [2]: 97 % of control | T/C (dose: 100.0 mg/kg/injection, schedule: Q01DX005 (ip), vehicle: saline): 95 % of control | T/C (dose: 200.0 mg/kg/injection, schedule: Q01DX005 (ip), vehicle: saline): 92 % of control

Nc1nc(Sc2ccccn2)ccc1[N+](=O)[O-]
T/C (dose: 50.0 mg/kg/injection, schedule: Q01DX009 (ip), vehicle: saline with Tween-80): 91 % of control | T/C (dose: 100.0 mg/kg/injection, schedule: Q01DX009 (ip), vehicle: saline with Tween-80): 91 % of control | T/C (dose: 200.0 mg/kg/injection, schedule: Q01DX009 (ip), vehicle: saline with Tween-80): 102 % of control

N#Cc1ccc(OC(=O)Nc2cc(Cl)cc(Cl)c2)cc1
T/C [3]: 89 % of control | T/C [4]: 106 % of control | T/C [5]: 101 % of control

Cc1c(O)ccc2c1OCC(c1ccc(Cl)cc1)C2 (centres undefined)
T/C [3]: 104 % of control | T/C [4]: 91 % of control | T/C [5]: 92 % of control

N#CCCn1ccc2ccccc21
T/C (dose: 100.0 mg/kg/injection, schedule: Q04DX003 (ip), vehicle: other): 113 % of control | T/C (dose: 200.0 mg/kg/injection, schedule: Q04DX003 (ip), vehicle: other): 100 % of control | T/C (dose: 400.0 mg/kg/injection, schedule: Q04DX003 (ip), vehicle: other): 90 % of control

CC1(OC(=O)c2ccccc2)CC(C)(C)[N+]([O-])=N1 (centres undefined)
T/C (dose: 12.5 mg/kg/injection, schedule: Q01DX005 (ip), vehicle: other): 97 % of control | T/C (dose: 25.0 mg/kg/injection, schedule: Q01DX005 (ip), vehicle: other): 98 % of control | T/C (dose: 50.0 mg/kg/injection, schedule: Q01DX005 (ip), vehicle: other): 100 % of control | T/C (dose: 100.0 mg/kg/injection, schedule: Q01DX005 (ip), vehicle: other): 90 % of control | T/C (dose: 200.0 mg/kg/injection, schedule: Q01DX005 (ip), vehicle: other): 93 % of control

Nc1ncnc2c1ncn2CC(O)CN(CCO)CCO (centres undefined) (tested in a mixture with another compound)
T/C (dose: 60.0 mg/kg/injection, schedule: Q01DX005 (ip), vehicle: saline): 93 % of control | T/C (dose: 120.0 mg/kg/injection, schedule: Q01DX005 (ip), vehicle: saline): 95 % of control | T/C (dose: 240.0 mg/kg/injection, schedule: Q01DX005 (ip), vehicle: saline): 94 % of control

CN=C(N)NCCCCCCCCNC(N)=NC
T/C (dose: 3.13 mg/kg/injection, schedule: Q01DX009 (ip), vehicle: saline with Tween-80): 112 % of control | T/C (dose: 3.13 mg/kg/injection, schedule: Q01DX009 (ip), vehicle: saline): 124 % of control | T/C (dose: 6.25 mg/kg/injection, schedule: Q01DX009 (ip), vehicle: saline with Tween-80): 109 % of control | T/C (dose: 6.25 mg/kg/injection, schedule: Q01DX009 (ip), vehicle: saline): 109 % of control | T/C (dose: 12.5 mg/kg/injection, schedule: Q01DX009 (ip), vehicle: saline with Tween-80): 112 % of control | T/C [1]: 87 % of control

c1ccc2c3cc(cc2c1)OCCOCCOCCOc1ccc2ccccc2c1-c1c(ccc2ccccc12)OCCOCCOc1ccc2ccccc2c1-3
T/C (dose: 100.0 mg/kg/injection, schedule: Q01DX001 (ip), vehicle: saline with Tween-80): 97 % of control | T/C (dose: 200.0 mg/kg/injection, schedule: Q01DX001 (ip), vehicle: saline with Tween-80): 94 % of control

Clc1nc2nc(Cl)c(Cl)n2nc1Cl
T/C (dose: 6.25 mg/kg/injection, schedule: Q04DX002 (ip), vehicle: saline): 109 % of control | T/C (dose: 12.5 mg/kg/injection, schedule: Q04DX002 (ip), vehicle: saline): 107 % of control | T/C (dose: 25.0 mg/kg/injection, schedule: Q04DX002 (ip), vehicle: saline): 106 % of control

Cc1ccc(NCCNCC(O)CO)c2c(=O)c3ccccc3sc12 (centres undefined)
T/C (dose: 12.5 mg/kg/injection, schedule: Q01DX005 (ip), vehicle: Klucel (hydroxypropylcellulose) (HPC)): 109 % of control | T/C (dose: 25.0 mg/kg/injection, schedule: Q01DX005 (ip), vehicle: Klucel (hydroxypropylcellulose) (HPC)): 118 % of control | T/C [2]: 151 % of control

CCOC1=C(C)C(N(CC)CC)=NS(=O)(=O)c2ccccc21
T/C [6]: 99 % of control | T/C [7]: 103 % of control | T/C [8]: 98 % of control

CN(C)c1cccc2c(S(=O)(=O)NCCCCCCCCCCCCNS(=O)(=O)c3cccc4c(N(C)C)cccc34)cccc12
T/C (dose: 15.0 mg/kg/injection, schedule: Q01DX005 (ip), vehicle: saline with Tween-80): 96 % of control | T/C (dose: 30.0 mg/kg/injection, schedule: Q01DX005 (ip), vehicle: saline with Tween-80): 92 % of control | T/C [3]: 87 % of control | T/C [5]: 88 % of control

CCOC(=O)C1=C(C)Oc2cc3c(cc2C1c1ccc(OC)cc1)OCO3 (centres undefined)
T/C [3]: 105 % of control | T/C [4]: 105 % of control | T/C [5]: 94 % of control

Cc1ccc(NC(=O)C(Cl)(Cl)Cl)cc1[N+](=O)[O-]
T/C (dose: 100.0 mg/kg/injection, schedule: Q04DX003 (ip), vehicle: saline with Tween-80): 104 % of control | T/C (dose: 200.0 mg/kg/injection, schedule: Q04DX003 (ip), vehicle: saline with Tween-80): 100 % of control | T/C (dose: 400.0 mg/kg/injection, schedule: Q04DX003 (ip), vehicle: saline with Tween-80): 100 % of control

CCC1(CC)CCC(C(=O)OC)/C1=N\Nc1ccc([N+](=O)[O-])cc1[N+](=O)[O-] (centres undefined)
T/C [6]: 102 % of control | T/C [7]: 98 % of control | T/C [8]: 100 % of control

Cc1ccc(N(C)c2cc(=O)n(C)c(=O)[nH]2)cc1C
T/C (dose: 50.0 mg/kg/injection, schedule: Q01DX005 (ip), vehicle: saline with Tween-80): 94 % of control | T/C (dose: 100.0 mg/kg/injection, schedule: Q01DX005 (ip), vehicle: saline with Tween-80): 103 % of control

Cc1ccc2nc(CN(CCN(Cc3nc4ccc(C)cc4[nH]3)Cc3nc4ccc(C)cc4[nH]3)Cc3nc4ccc(C)cc4[nH]3)[nH]c2c1
T/C (dose: 0.38 mg/kg/injection, schedule: Q01DX005 (ip), vehicle: saline with Tween-80): 94 % of control | T/C (dose: 0.75 mg/kg/injection, schedule: Q01DX005 (ip), vehicle: saline with Tween-80): 97 % of control | T/C (dose: 1.5 mg/kg/injection, schedule: Q01DX005 (ip), vehicle: saline with Tween-80): 109 % of control | T/C (dose: 3.0 mg/kg/injection, schedule: Q01DX005 (ip), vehicle: saline with Tween-80): 106 % of control | T/C (dose: 3.12 mg/kg/injection, schedule: Q01DX005 (ip), vehicle: saline with Tween-80): 113 % of control
